In patent US20250092065A1, “2-(INDAZOL-5-YL)-6-(PIPERIDIN-4-YL)-1,7-NAPHTHYRIDINE DERIVATIVES AND RELATED COMPOUNDS AS MODULATORS FOR SPLICING NUCLEIC ACIDS AND FOR THE TREATMENT OF PROLIFERATIVE DISEASES” (REMIX THERAPEUTICS INC., priority 2022, published 2025):
Where two headings read alike, the source gives them in different places.

How the values were obtained:
HTT mRNA = assay: RT-qPCR splicing assay, HTT mRNA canonical (CJ) and alternative (AJ) junction; type: cell-based, human; settings: Homo sapiens; for AC50: HTT alternative junction mRNA increase, read-out: HTT AJ (increase in alternative junction mRNA, AC50)
Description: (§1) Compounds described herein were used to modulate RNA transcript abundance in cells. The expression of a target mRNA was measured by detecting the formation of an exon-exon junction in the canonical transcript (CJ). A compound mediated exon-inclusion event was detected by observing an increase in formation of a new junction with an alternative exon (AJ). Real-time qPCR assays were used to detect these splicing switches and interrogate the potency of various compounds towards different target genes. A high-throughput real time quantitative PCR (RT-qPCR) assay was developed to measure these two isoforms of the mRNA (CJ and AJ) for exemplary genes, such as HTT, SMN2, and MYB, together with a control housekeeping gene, GAPDH or GUSB or PPIA, used for normalization. Briefly, the A673 or K562 cell line was treated with various compounds described herein (e.g., compounds of Formula (I)). After treatment, the levels of the HTT, MYB, or SMN2 mRNA targets were determined from each sample of cell lysate by cDNA synthesis followed by qPCR.
(§2) The A673 cell line was cultured in DMEM with 10% FBS. Cells were diluted with full growth media and plated in a 96-well plate (15,000 cells in 100 ul media per well). The plate was incubated at 37° C. with 5% CO2 for 24 hours to allow cells to adhere. An 11-point 3-fold serial dilution of the compounds was made in DMSO then diluted in media in an intermediate plate. Compounds were transferred from the intermediate plate to the cell plate with the top dose at a final concentration of 10 uM in the well. Final DMSO concentration was kept at or below 0.25%. The cell plate was returned to the incubator at 37° C. with 5% CO2 for an additional 24 hours.
(§3) The K562 cell line was cultured in IMDM with 10% FBS. For K562, cells were diluted with full growth media and plated in either a 96-well plate (50,000 cells in 50 uL media per well) or a 384-well plate (8,000-40,000 cells in 45 uL media per well). An 11-point 3-fold serial dilution of the compounds were made in DMSO then diluted in media in an intermediate plate. Compound was transferred from the intermediate plate to the cell plate with the top dose at a final concentration of 10 uM in the well. Final DMSO concentration was kept at or below 0.25%. Final volume was 100 uL for 96-well plate and 50 uL for 384-well plate. The cell plate was then placed in an incubator at 37° C. with 5% CO2 for 24 hours.
(§4) The cells were then gently washed with 50 uL-100 uL cold PBS before proceeding to addition of lysis buffer. 30 uL-50 μL of room temperature lysis buffer with DNAse I (and optionally RNAsin) was added to each well. Cells were shaken/mixed thoroughly at room temperature for 5-10 minutes for lysis to take place and then 3 uL-5 μL of room temperature stop solution was added and wells were shaken/mixed again. After 2-5 minutes, the cell lysate plate was transferred to ice for RT-qPCR reaction setup. The lysates could also be frozen at −80° C. for later use.
(§5) In some cases, a direct lysis buffer was used. An appropriate volume of 3× lysis buffer (10 mM Tris, 150 mM NaCl, 1.5%-2.5% Igepal and 0.1-1 U/uL RNAsin, pH 7.4) was directly added to either K562 or A673 cells in media and mixed by pipetting 3 times. The plates were then incubated at room temperature with shaking/rocking for 20-50 minutes to allow for lysis to take place. After this time, the cell lysate plate was transferred to ice to set up for the RT-qPCR reactions. The lysates could also be frozen at −80° C. for later use.
(§6) To set up 10 uL RT-qPCR reactions, cell lysates were transferred to 384-well qPCR plates containing the master mix according to the table below. The plates were sealed, gently vortexed, and spun down before the run. The volumes were adjusted accordingly in some instances where the reaction was carried in 20 μL. The table below summarizes the components of the RT-qPCR reactions:
(§7) The RT-qPCR reaction was performed using a QuantStudio (ThermoFisher) under the following fast cycling conditions. […]

MYB mRNA = assay: RT-qPCR splicing assay, MYB mRNA canonical (CJ) and alternative (AJ) junction; type: cell-based, human; settings: Homo sapiens; for AC50: MYB alternative junction mRNA increase, read-out: MYB AJ (increase in alternative junction mRNA, AC50)
Description: as §1, §2, §3, §4, §5, §6, §7

SMN2 mRNA = assay: RT-qPCR splicing assay, SMN2 mRNA; type: cell-based, human; settings: Homo sapiens, canonical junction qPCR panel, Table 4; read-out: SMN2 IC50 (decrease in CJ mRNA levels)
Description: as §1, §2, §3, §4, §5, §6, §7

K562 cells = assay: Cell Titer Glo 2.0 cell viability (toxicity) assay, K562; settings: 500 cells/well, 72 hours
[1] = RT-qPCR, HTT canonical junction mRNA decrease, read-out: HTT CJ (decrease in canonical junction mRNA, IC50)
[2] = canonical junction qPCR panel, Table 4, read-out: HTT IC50 (decrease in CJ mRNA levels)
[3] = RT-qPCR, MYB canonical junction mRNA decrease, read-out: MYB CJ (decrease in canonical junction mRNA, IC50)
[4] = canonical junction qPCR panel, Table 4, read-out: MYB IC50 (decrease in CJ mRNA levels)

SMILES	IC50 (HTT mRNA; [1]) [µM]	IC50 (HTT mRNA; [2]) [µM]	IC50 (MYB mRNA; [3]) [µM]	IC50 (MYB mRNA; [4]) [µM]	IC50 (SMN2 mRNA) [µM]	AC50 (HTT mRNA; RT-qPCR) [µM]	AC50 (MYB mRNA; RT-qPCR) [µM]	Effect of Exemplary Compounds on Cell Viability, K562 (K562 cells)
Cc1cn2cc(-c3ncc4cc(N5C[C@@H](C)N[C@@H](C)C5)ccc4n3)ccc2n1 [Compound 832]	> 10	> 10	0.1 to 1	0.1 to 1	< 0.1	> 10	1 to 10	C (C represents 1000-9999 nM)
C[C@@H]1CN(c2ccc3nc(-c4cc(F)c5nc(CO)cn5c4)ncc3c2)C[C@H](C)N1 [Compound 834, (6-{6-[(3R,5S)-3,5-dimethylpiperazin-1-yl]quinazolin-2-yl}-8-fluoroimidazo[1,2-a]pyridin-2-yl)methanol]	1 to 10	1 to 10	0.1 to 1	0.1 to 1	< 0.1	1 to 10	0.1 to 1	C (C represents 1000-9999 nM)
CCc1cn2cc(-c3ncc4cc(N5C[C@@H](C)N[C@@H](C)C5)ccc4n3)cc(F)c2n1 [Compound 836]	1 to 10	1 to 10	> 10	> 10	0.1 to 1	> 10	1 to 10	C (C represents 1000-9999 nM)
Cc1cn2cc(-c3ncc4cc(N5C[C@@H](C)N[C@@H](C)C5)ccc4n3)cc(Cl)c2n1 [Compound 896]								B (B represents 100-1000 nM)
Cn1cc2cc(-c3ncc4cc(N5CC[C@@H](NC(C)(C)C)C5)ccc4n3)c(O)c(F)c2n1 [Compound 930]	1 to 10	1 to 10	0.1 to 1	0.1 to 1	< 0.1	> 10	0.1 to 1	

Second part, led by results:

IC50 (HTT mRNA; [1]) [µM]	IC50 (HTT mRNA; [2]) [µM]	IC50 (MYB mRNA; [3]) [µM]	IC50 (MYB mRNA; [4]) [µM]	IC50 (SMN2 mRNA) [µM]	SMILES	AC50 (HTT mRNA; RT-qPCR) [µM]	AC50 (MYB mRNA; RT-qPCR) [µM]	Effect of Exemplary Compounds on Cell Viability, K562 (K562 cells)
1 to 10	1 to 10	1 to 10	1 to 10	0.1 to 1	C[C@@H]1CN(c2ccc3nc(-c4cc(F)c5nncn5c4)ncc3c2)C[C@H](C)N1 [Compound 833]	1 to 10	1 to 10	C (C represents 1000-9999 nM)
1 to 10	1 to 10	0.1 to 1	0.1 to 1	< 0.1	C[C@@H]1CN(c2ccc3nc(-c4cc(F)c5nc(CF)cn5c4)ncc3c2)C[C@H](C)N1 [Compound 835, 6-[(3R,5S)-3,5-dimethylpiperazin-1-yl]-2-[8-fluoro-2-(fluoromethyl)imidazo[1,2-a]pyridin-6-yl]quinazoline]	1 to 10	0.1 to 1	B (B represents 100-1000 nM)
1 to 10	1 to 10	< 0.1	< 0.1	< 0.1	Cn1cc2cc(-c3ncc4cc(N5CC[C@H](NC(C)(C)C)C5)ccc4n3)c(O)c(F)c2n1 [Compound 929]	0.1 to 1	< 0.1	
